Results on 25 molecules are retold here after US20230135894A1, “MK2 DEGRADERS AND USES THEREOF” (Kymera Therapeutics, Inc., priority 2021, published 2023).

In assay [1] the target is T1, MK2 (Homo sapiens, UniProt P49137). Briefly: MK2 degradation in human SW1353 cells (MSD, 24 h). The format is cell-based. More on the design: endogenous in cells; host or cells: SW-1353 (ATCC HTB-94); key to MK2 MSD SW1353 degradation 24 h GMean External Abs DC50: A (<0.001 μM); B (0.001-0.01 μM); C (0.01-0.1 μM); D (>0.1 μM); —: “-”=not tested or inactive; key to MK2 MSD SW 1353 24 h Dmax %: —: “-”=not tested or inactive. As to conditions: for Dmax: read-out: MK2 MSD SW 1353 24 h Dmax %; for DC50: read-out: MK2 MSD SW1353 degradation 24 h GMean External Abs DC50. The procedure, abridged:
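SW1353 chondrosarcoma cells were treated with up to 10-point serial dilutions (0.1% DMSO) for 24 h at 37 °C, then lysed in RIPA buffer. MK2 levels were quantified by MSD sandwich immunoassay; DC50 came from a 4-parameter logistic fit normalised to DMSO-treated cells (high) and lysis buffer (low).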

In assay [2] the target is T1, MK2. As to the kind of experiment: MK2 degradation in human THP-1 monocytic cells (MSD, 24 h). The format is cell-based. More on the design: endogenous in cells. As to conditions: for Dmax: THP-1, THP-1 cells; for DC50: THP-1 cells, read-out: MK2 MSD THP-1 degradation 24 h GMean External Abs DC50. The procedure, abridged: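 THP-1 cells (200,000/well) treated 24 h at 37 °C with compound dilution series (up to 10 points, 0.1% DMSO). MK2 in RIPA lysates quantified by MSD sandwich immunoassay. DC50 from 4-parameter logistic fit, DMSO-treated cells as high and lysis buffer as low signal.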

The structures appear in SMILES notation.

T1 sequence (P49137 whole entry): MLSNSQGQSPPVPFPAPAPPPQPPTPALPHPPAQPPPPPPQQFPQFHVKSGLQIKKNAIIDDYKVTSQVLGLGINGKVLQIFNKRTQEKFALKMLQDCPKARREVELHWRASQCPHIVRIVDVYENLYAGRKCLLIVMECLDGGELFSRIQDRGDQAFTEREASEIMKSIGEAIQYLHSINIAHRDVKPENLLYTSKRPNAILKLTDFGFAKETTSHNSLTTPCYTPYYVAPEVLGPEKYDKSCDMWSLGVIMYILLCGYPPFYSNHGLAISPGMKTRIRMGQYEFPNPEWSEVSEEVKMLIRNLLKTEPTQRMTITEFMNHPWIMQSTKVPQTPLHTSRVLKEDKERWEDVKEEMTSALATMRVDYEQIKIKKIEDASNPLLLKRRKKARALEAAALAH

In the case of `Cc1cc(N2CCN(CC3CN(c4ccc5c(c4)n(C)c(=O)n5C4CCC(=O)NC4=O)C3)CC2)ncc1-c1ccc2c(ccc3sc4c(c32)NC[C@@H](C)NC4=O)n1` (stereo partly shown) [Compound I-250], in assay [1], the Dmax is above 75% and the DC50 is below 1 nM. Besides, in assay [2], the Dmax was in the range of 50 to 75% and the half-maximal degradation concentration (DC50) was below 1 nM.
As to `Cn1c(=O)n(C2CCC(=O)NC2=O)c2ccc(CCN3CCN(c4ccc(-c5cc(-c6cc7c([nH]6)C6(CC6)CNC7=O)ccn5)cc4)CC3)cc21` (stereo not shown) [Compound I-202], in assay [1], the “MK2 MSD SW 1353 24 h Dmax %” value is on record as “—” and the “MK2 MSD SW1353 degradation 24 h GMean External Abs DC50” value was “—”. In assay [2], the Dmax was below 50% and the half-maximal degradation concentration (DC50) was above 100 nM.
For `Cn1c(=O)n(C2CCC(=O)NC2=O)c2ccc(N3CCC(CN4CCN(c5ccc6oc(-c7cc(Nc8ccnc(N)n8)cc8cn[nH]c78)cc6c5)CC4)CC3)cc21` (stereo not shown) [Compound I-429], in assay [1], the greatest degradation seen (Dmax) was below 50% and the DC50 is above 100 nM. Besides, in assay [2], the greatest degradation seen (Dmax) was below 50% and the half-maximal degradation concentration (DC50) is above 100 nM.
Take `CN1CC2(CNC(=O)c3c2[nH]c2c3CCc3cnc(-c4ccc(N5CCN(CCCCc6cccc7c6n(C)c(=O)n7C6CCC(=O)NC6=O)CC5)cc4F)cc3-2)C1` (stereo not shown) [Compound I-154]: in assay [1], the Dmax is above 75% and the DC50 is 10 to 100 nM. Further, in assay [2], the Dmax was above 75% and the DC50 lay within 10 to 100 nM.
Take `C[C@@H]1CNc2c(sc3ccc4nc(-c5cnc(N6CCN(CC7CCN(c8cccc9c8n(C)c(=O)n9C8CCC(=O)NC8=O)CC7)CC6)nc5)ccc4c23)C(=O)N1` (stereo partly shown) [Compound I-281]: the maximal degradation (Dmax) in assay [1] and in assay [2] was above 75% throughout. Moreover, the DC50 is 1 to 10 nM in assay [1] and below 1 nM in assay [2].
As for `C[C@@H]1CNc2c(sc3ccc4nc(N5CCCN(CC6CCN(c7ccc8c(c7)n(C)c(=O)n8C7CCC(=O)NC7=O)CC6)CC5)ccc4c23)C(=O)N1` (stereo partly shown) [Compound I-446], in assay [1], the maximal degradation (Dmax) is below 50% and the DC50 was above 100 nM. Besides, in assay [2], the maximal degradation (Dmax) is below 50% and the DC50 was above 100 nM.
Take `C[C@@H]1CNc2c(sc3ccc4nc(N5CCN(C6CC7(CCN(c8ccc9c(c8)n(C)c(=O)n9C8CCC(=O)NC8=O)CC7)C6)CC5)ccc4c23)C(=O)N1` (stereo partly shown) [Compound I-451]: in assay [1], the Dmax was above 75% and the DC50 was below 1 nM. Also, in assay [2], the Dmax was above 75% and the DC50 is below 1 nM.
In the case of `Cn1c(=O)n(C2CCC(=O)NC2=O)c2ccc(N3CCC(CN4CCN(c5cc(-c6ccc7cc[nH]c7c6)cc(-n6cc(-c7ccc8c(c7)CCNC8=O)c(N)n6)c5)CC4)CC3)cc21` (stereo not shown) [Compound I-461], in assay [1], the Dmax is above 75% and the DC50 lay in the range of 1 to 10 nM. In assay [2], the Dmax lay within 50 to 75% and the 50% degradation concentration (DC50) was 10 to 100 nM.
In the case of `C[C@@H]1CNc2c(sc3ccc4nc(N5CCC(CN6CCN(c7ccc8c(c7)n(C)c(=O)n8C7CCC(=O)NC7=O)CC6)CC5)ccc4c23)C(=O)N1` (stereo partly shown) [Compound I-264], in assay [1], the maximal degradation (Dmax) is above 75% and the DC50 was 1 to 10 nM. Also, in assay [2], the Dmax was above 75% and the 50% degradation concentration (DC50) lay within 1 to 10 nM.
Take `Cn1c(=O)n(C2CCC(=O)NC2=O)c2ccc(N3CCC(CN4CCN(c5ccc(-c6nccc(-c7cc8c([nH]7)C7(CC7)CNC8=O)n6)cc5)CC4)CC3)cc21` (stereo not shown) [Compound I-428]: the greatest degradation seen (Dmax) in assay [1] and in assay [2] was above 75% throughout. The figures for the DC50 in assay [1] and in assay [2] were below 1 nM and 1 to 10 nM, respectively.
Turning to `Cn1c(=O)n(C2CCC(=O)NC2=O)c2cccc(C3CCN(CC4CCN(c5ccc(-c6cc(-c7cc8c([nH]7)CCNC8=O)ccn6)c(F)c5)CC4)CC3)c21` (stereo not shown) [Compound I-137], the Dmax in assay [1] and in assay [2] was above 75% in each case. The half-maximal degradation concentration (DC50) in assay [1] is below 1 nM; in assay [2], 1 to 10 nM.
On to `C[C@@H]1CNc2c(sc3ccc4nc(N5CC6(CCN(CC7CCN(c8ccc9c(c8)n(C)c(=O)n9C8CCC(=O)NC8=O)CC7)CC6)C5)ccc4c23)C(=O)N1` (stereo partly shown) [Compound I-390], for which, in assay [1], the Dmax is below 50% and the DC50 was above 100 nM. Further, in assay [2], the greatest degradation seen (Dmax) was below 50% and the DC50 was above 100 nM.
On to `C[C@@H]1CN(C)c2c(sc3ccc4nc(-c5ccc(N6CCN(CCCc7ccc8c(c7)n(C)c(=O)n8C7CCC(=O)NC7=O)CC6)cc5)ccc4c23)C(=O)N1` (stereo partly shown) [Compound I-266], for which, in assay [1], the maximal degradation (Dmax) was above 75% and the 50% degradation concentration (DC50) was 1 to 10 nM. In assay [2], the Dmax was above 75% and the DC50 fell in the range of 1 to 10 nM.
`Cn1c(=O)n(C2CCC(=O)NC2=O)c2ccc(N3CCC(CN4CCN(c5ccc(-c6cc(-c7cc8c([nH]7)C7(CC7)CNC8=O)ccn6)cc5)CC4)CC3)cc21` (stereo not shown) [Compound I-244]: in assay [1], the Dmax was above 75% and the DC50 is below 1 nM. Besides, in assay [2], the greatest degradation seen (Dmax) is above 75% and the 50% degradation concentration (DC50) is below 1 nM.
`Cc1ccc(NC(=O)c2cccc(C(F)(F)F)c2)cc1N1Cc2cnc(Nc3ccc(N4CCN(CCCCC(=O)N[C@H](C(=O)N5C[C@H](O)C[C@H]5C(=O)N[C@@H](C)c5ccc(-c6scnc6C)cc5)C(C)(C)C)CC4)nc3)nc2N(C)C1=O` [Compound I-463]: the greatest degradation seen (Dmax) in assay [1] and in assay [2] was above 75% throughout. For the same molecule, the DC50 in assay [1] and in assay [2] was 1 to 10 nM in each case.
`C[C@@H]1CNc2c(sc3ccc4nc(-c5ccc(N6CC7(CCN(c8ccc9c(c8)n(C)c(=O)n9C8CCC(=O)NC8=O)CC7)C6)nc5)ccc4c23)C(=O)N1` (stereo partly drawn) [Compound I-409, 3-(3-methyl-5-(2-(5-((R)-10-methyl-8-oxo-9,10,11,12-tetrahydro-8H-[1,4]diazepino[5′,6′:4,5]thieno[3,2-f]quinolin-3-yl)pyridin-2-yl)-2,7-diazaspiro[3.5]nonan-7-yl)-2-oxo-2,3-dihydro-1H-benzo[d]imidazol-1-yl)piperidine-2,6-dione]: the maximal degradation (Dmax) in assay [1] and in assay [2] was above 75% in each case. In addition, the half-maximal degradation concentration (DC50) in assay [1] and in assay [2] was below 1 nM in each case.
For `C[C@@H]1CNc2c(sc3ccc4nc(-c5ccnc(N6CCN(CC7CCN(c8ccc9c(c8)n(C)c(=O)n9C8CCC(=O)NC8=O)CC7)CC6)c5)ccc4c23)C(=O)N1` (stereo partly shown) [Compound I-278], in assay [1], the greatest degradation seen (Dmax) was above 75% and the DC50 was below 1 nM. Further, in assay [2], the Dmax is above 75% and the DC50 was below 1 nM.
Consider `C[C@@H]1CNc2c(sc3ccc4nc(-c5cccc(C#CCCNC(=O)CCCCCCCCCc6ccc7c(c6)n(C)c(=O)n7C6CCC(=O)NC6=O)c5)ccc4c23)C(=O)N1` (stereo partly shown) [Compound I-45], for which, in assay [1], the Dmax is above 75% and the DC50 lay within 10 to 100 nM. In addition, in assay [2], the Dmax is above 75% and the half-maximal degradation concentration (DC50) was 10 to 100 nM.
For the molecule `C[C@@H]1CNc2c(sc3ccc4nc(-c5ccc(CNC(=O)CCCCCCCc6cccc7c6n(C)c(=O)n7C6CCC(=O)NC6=O)cc5)ccc4c23)C(=O)N1` (stereo partly shown) [Compound I-88], in assay [1], the maximal degradation (Dmax) was above 75% and the 50% degradation concentration (DC50) lay within 1 to 10 nM. In assay [2], the maximal degradation (Dmax) is above 75% and the half-maximal degradation concentration (DC50) was 1 to 10 nM.
In the case of `C[C@@H]1CNc2c(sc3ccc4nc(-c5cccc(N6CCC(CN7CCN(c8cccc9c(N%10CCC(=O)NC%10=O)cncc89)CC7)CC6)c5)ccc4c23)C(=O)N1` [Compound I-310], the maximal degradation (Dmax) in assay [1] and in assay [2] was above 75% in each case. Further, the 50% degradation concentration (DC50) in assay [1] and in assay [2] was 1 to 10 nM in each case.
Take `C[C@@H]1CNc2c(sc3ccc4nc(N5CCC6(CCN(CC7CCN(c8ccc9c(c8)n(C)c(=O)n9C8CCC(=O)NC8=O)CC7)CC6)CC5)ccc4c23)C(=O)N1` (stereo partly shown) [Compound I-389]: in assay [1], the Dmax is below 50% and the DC50 is above 100 nM. In assay [2], the maximal degradation (Dmax) is below 50% and the DC50 was above 100 nM.
On to `C[C@@H]1CNc2c(sc3ccc4nc(-c5cncc(N6CCN(CCCc7ccc8c(c7)n(C)c(=O)n8C7CCC(=O)NC7=O)CC6)c5)ccc4c23)C(=O)N1` (stereo partly shown) [Compound I-157], for which the Dmax in assay [1] and in assay [2] was above 75% throughout. The DC50 in assay [1] and in assay [2] was below 1 nM in each case.
For the molecule `C[C@@H]1CNc2c(sc3ccc4nc(-c5ccc(N6CCN(CCCCOc7ccc(N8CCC(=O)NC8=O)cc7)CC6)nc5)ccc4c23)C(=O)N1` [Compound I-437], in assay [1], the Dmax is above 75% and the 50% degradation concentration (DC50) lay within 1 to 10 nM. Further, in assay [2], the greatest degradation seen (Dmax) is above 75% and the DC50 was 1 to 10 nM.
Consider `C[C@@H]1CNc2c(sc3ccc4nc(-c5cccc(N6CCN(C(=O)COCCOCCc7cccc8c7n(C)c(=O)n8C7CCC(=O)NC7=O)CC6)c5)ccc4c23)C(=O)N1` (stereo partly shown) [Compound I-34], for which, in assay [1], the Dmax is above 75% and the 50% degradation concentration (DC50) was below 1 nM. In addition, in assay [2], the maximal degradation (Dmax) was above 75% and the DC50 is below 1 nM.
Turning to `C[C@@H]1CNc2c(sc3ccc4nc(-c5cncc(N6CCN(CCCCCc7cccc8c7n(C)c(=O)n8C7CCC(=O)NC7=O)CC6)c5)ccc4c23)C(=O)N1` (stereo partly shown) [Compound I-156], in assay [1], the maximal degradation (Dmax) was above 75% and the half-maximal degradation concentration (DC50) was below 1 nM. In assay [2], the Dmax was above 75% and the DC50 is below 1 nM.
